Experimental data reported in patent US8293781B2, “Indole derivatives having cPLA2 inhibiting activity and applications and production methods of the same” (Daiichi Sankyo Company, Limited, priority 2007, dated 2012).
Counter-ions that a name gives are not always drawn.

How the values were obtained:
[1] = system: PGE2 production in mouse peritoneal exudate cells; assay: LPS-induced PGE2 production system using mouse peritoneal exudate cells; format: cell-based; conditions: LPS 10 μg/ml, 6 hours
Protocol: For evaluation of the PGE2 production inhibiting activity, the lipopolysaccharide (LPS)-induced PGE2 production system using mouse peritoneal exudate cells with reference to the method of Kim et al. (see Kim, Y K et al., Biol Pharm Bull 25: 472, 2002) was used. That is, 2 ml of thioglycolate solution (made by Sigma, Brewer's Thioglycorate medium) per mice were intraperitoneally administered to 8-week old female C3H/HeN mice (Charles River Japan). After 4 days, a phosphate buffer saline (PBS) 5 ml was used to wash the abdominal cavity and the infiltrating cells were recovered. The recovered cells were suspended in a predetermined concentration in an RPMI1640 medium (Nacalai Tesque) containing 10% bovine fetal serum (BioWhittaker) and 10 μg/ml gentamycin (Invitrogen).
The infiltrating cell suspension 100 μl containing 2×10^5 cells per well was inoculated in a 96-well culture plate, then the test compound solution or solvent 50 μl was added. Under conditions of 5% CO2 and 37° C., this was precultured for 15 minutes, then LPS (made by Sigma: L-4524) solution 50 μl (final concentration of LPS of 10 μg/ml) was added, and the mixture was cultured for a further 6 hours. After the end of the culture, the culture supernatant was recovered and the PGE2 concentration in the supernatant was measured using an EIA kit (made by Amersham). Based on the measurement value, the test compound concentration suppressing 50% of the PGE2 production at the time of non-addition of a compound (IC50 value) was calculated.

[2] = system: LTB4 production in rat mast cell like cell line RBL-2H3; assay: Calcium ionophore-induced LTB4 production system using RBL-2H3; format: cell-based; conditions: 1 h, RBL-2H3, A23187 5 μM, one hour
Protocol: For the evaluation by LTB4 and Cys-LTs production inhibiting activity, the calcium ionophore-induced LTB4 and Cys-LTs production system using the rat mast cell like cell line RBL-2H3 with reference to the method of Ishiwara et al. (see Ishiwara M. et al., J Pharmacol Exp Ther 307: 583, 2003) was used. That is, rat mast cell like cell line RBL-2H3 cells were suspended in Dulbecco's modified Eagle's medium (Nacalai Tesque) containing 10% bovine fetal serum (BioWhittaker) and 10 μg/ml gentamycin (Invitrogen). The infiltrating cell suspension 200 μl containing 1×10^5 cells per well was inoculated to 96-well culture plate and cultured over night under conditions of 5% CO2 and 37° C. The culture supernatant was removed, then the test compound solution or solvent 50 μl was added. After 30 minutes preculture, calcium ionophore (A23187) was added to a final concentration of 5 μM to induce leukotriene production.
One hour after calcium ionophore stimulus, the culture supernatant was recovered and the amounts of LTB4 and Cys-LTs in the supernatant were measured using an EIA kit (made by Amersham). Based on the measurement values, the test compound concentrations suppressing 50% of the mediator production at the time of non-addition of a compound (IC50 value) were calculated.

[3] = target: T1, cPLA2 crudely purified from the cytoplasm fraction of U937 (Homo sapiens, UniProt P47712); assay: Measurement of cPLA2 inhibitory activity (release of [14C]-arachidonic acid from phosphatidyl choline liposome); format: biochemical; conditions: cPLA2 from U937 cytoplasm fraction, [14C]arachidonyl-phosphatidyl choline liposome, 37° C., 60 minutes; read-out: cPLA2 inhibitory activity, 50% inhibiting concentration IC50
T1 construct: cPLA2 crudely purified from the cytoplasm fraction of U937; endogenous in cells; host or cells: U937 cells (cytoplasm fraction, crude purification)
T1 sequence (P47712 1-749): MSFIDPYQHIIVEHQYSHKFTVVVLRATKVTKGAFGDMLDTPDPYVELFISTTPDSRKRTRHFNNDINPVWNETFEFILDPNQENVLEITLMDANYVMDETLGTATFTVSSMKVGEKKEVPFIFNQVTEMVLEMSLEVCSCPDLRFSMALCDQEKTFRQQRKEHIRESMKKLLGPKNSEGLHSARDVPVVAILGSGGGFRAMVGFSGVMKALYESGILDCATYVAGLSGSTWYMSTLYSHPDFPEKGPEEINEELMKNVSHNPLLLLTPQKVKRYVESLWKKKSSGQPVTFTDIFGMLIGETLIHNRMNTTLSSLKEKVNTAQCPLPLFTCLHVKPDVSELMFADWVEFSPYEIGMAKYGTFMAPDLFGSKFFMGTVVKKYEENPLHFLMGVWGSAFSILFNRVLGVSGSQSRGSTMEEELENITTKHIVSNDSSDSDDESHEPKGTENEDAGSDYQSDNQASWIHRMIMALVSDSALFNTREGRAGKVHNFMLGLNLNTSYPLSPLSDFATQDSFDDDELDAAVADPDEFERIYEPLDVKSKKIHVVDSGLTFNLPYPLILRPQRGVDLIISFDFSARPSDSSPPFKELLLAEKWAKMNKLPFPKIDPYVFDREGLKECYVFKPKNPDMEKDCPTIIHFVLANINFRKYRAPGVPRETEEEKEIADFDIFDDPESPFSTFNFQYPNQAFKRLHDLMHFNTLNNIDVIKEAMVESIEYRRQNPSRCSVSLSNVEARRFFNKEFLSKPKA
In short: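 The read-out is radioactivity from extracted [14C]-arachidonic acid, freed over 60 min at 37° C from liposomes of 14C-arachidonyl phosphatidylcholine (10 μM PC in the added solution). Buffer was 50 mM HEPES pH 7.5 with Ca2+, DTT, NaCl and BSA. IC50 was derived from inhibition relative to enzyme control minus no-enzyme control.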

Row | SMILES | IC50 [1] | IC50 [2] | IC50 [3]
1 | O=C(O)CCc1ccc2c(c1)c(CCc1ccccc1)cn2-c1ccc(O)cc1 [Example 126, 3-[1-(4-hydroxyphenyl)-3-(2-phenylethyl)-1H-indol-5-yl]propanoic acid] | 540 nM | 770 nM | 11 nM
2 | O=C(O)CCc1ccc2c(c1)c(CCc1ccccc1)cn2-c1ccc(F)cc1 [Example 187, 3-[1-(4-fluorophenyl)-3-(2-phenylethyl)-1H-indol-5-yl]propanoic acid] | 280 nM | 260 nM | 58 nM
3 | O=C(O)CCc1ccc2c(c1)c(CCc1ccccc1)cn2-c1ccc(OC(F)F)cc1 [Example 190, 3-{1-[4-(difluoromethoxy)phenyl]-3-(2-phenylethyl)-1H-indol-5-yl}propanoic acid 2-amino-2-(hydroxymethyl)propane-1,3-diol salt (1:1)] | 850 nM | 380 nM | 28 nM
4 | COCc1ccc(-n2cc(CCc3ccccc3)c3cc(CCC(=O)O)ccc32)cc1 [Example 217, 3-{1-[4-(methoxymethyl)phenyl]-3-(2-phenylethyl)-1H-indol-5-yl}propanoic acid 2-amino-2-(hydroxymethyl)propane-1,3-diol salt (1:1)] | 1700 nM | 500 nM | 47 nM
5 | O=C(O)CCc1ccc2c(c1)c(CCc1ccccc1)cn2-c1ccc(OCCO)cc1 [Example 229, 3-{1-[4-(2-hydroxyethoxy)phenyl]-3-(2-phenylethyl)-1H-indol-5-yl}propanoic acid 2-amino-2-(hydroxymethyl)propane-1,3-diol salt (1:1)] | 800 nM | 20 nM | 14 nM
6 | O=C(O)CCc1ccc2c(c1)c(CCc1ccccc1)cn2-c1ccc(Oc2ccccc2)cc1 [Example 231, 3-[1-(4-phenoxyphenyl)-3-(2-phenylethyl)-1H-indol-5-yl]propanoic acid 2-amino-2-(hydroxymethyl)propane-1,3-diol salt (1:1)] | 500 nM | 180 nM | 20 nM
